According to patent US5495032A, “Process for producing 7-(substituted)-8-(substituted-9-[(substituted glycyl)amido]-6-demethyl-6-deoxytetracyclines” (priority 1994, dated 1996):
Converted amounts (≈) assume the structure as drawn. Counter-ions that a name gives are not always drawn. Like-named read-outs stand apart in the source and are kept apart here.

How the values were obtained:
Format in all cases: cell-based
E. coli UBMS 88-1 Tet B = experiment: microbe, parasite or virus in culture; conditions: Escherichia coli, UBMS881TETB, 18 h, 18 hours at 35° C.
[1] = tested on: E. coli MC 4100 Tet sens.; experiment: MIC, agar dilution method; conditions: Escherichia coli, 18 hours at 35° C., read-out: MIC
E. coli PRP1 Tet A = experiment: microbe, parasite or virus in culture; conditions: Escherichia coli, PRP1TETA, 18 h, 18 hours at 35° C.
[2] = tested on: E. coli MC 4100 TNIOC Tet B; experiment: microbe, parasite or virus in culture; conditions: Escherichia coli, 18 h, 18 hours at 35° C.
E. coli J3272 Tet C = experiment: microbe, parasite or virus in culture; conditions: Escherichia coli, J3272TETC, 18 h
E. coli UBMS 89-1 Tet M = experiment: microbe, parasite or virus in culture; conditions: Escherichia coli, UBMS891TETM, 18 h, 18 hours at 35° C.
[3] = tested on: E. coli UBMS 89-2 Tet sens; experiment: MIC, agar dilution method; conditions: Escherichia coli, UBMS892TETSENS, 18 h, 18 hours at 35° C., read-out: MIC
E. coli J2175 = experiment: MIC, agar dilution method; conditions: Escherichia coli, 18 hours at 35° C., read-out: MIC
E. coli BAJ9003 IMP MUT = experiment: microbe, parasite or virus in culture; conditions: Escherichia coli, BAJ9003IMPMUT, 18 h, 18 hours at 35° C.
E. coli UBMS 90-4 Tet M = experiment: microbe, parasite or virus in culture; conditions: Escherichia coli, UBMS904TETM, 18 h, 18 hours at 35° C.
E. coli UBMS 90-5 sens = experiment: MIC, agar dilution method; conditions: Escherichia coli, UBMS905SENS, 18 hours at 35° C., read-out: MIC
E. coli #311 (MP) = experiment: MIC, agar dilution method; conditions: Escherichia coli, 18 hours at 35° C., read-out: MIC
E. coli ATCC 25922 = experiment: MIC, agar dilution method; conditions: Escherichia coli, ATCC25922, 18 hours at 35° C., read-out: MIC
E. coli J3272 Tet D = experiment: microbe, parasite or virus in culture; conditions: Escherichia coli, J3272TETD, 18 h
S. mariescens FPOR 8733 = experiment: MIC, agar dilution method; conditions: 18 h, 18 hours at 35° C.
[4] = tested on: X. maltophilia NEMC 87210; experiment: MIC, agar dilution method; conditions: Stenotrophomonas maltophilia
[5] = tested on: Ps. acruginosa ATCC 27853; experiment: MIC, agar dilution method
S. aureus NEMC 8769 = experiment: MIC, agar dilution method; conditions: Staphylococcus aureus
S. aureus UBMS 88-4 = experiment: MIC, agar dilution method; conditions: Staphylococcus aureus, UBMS884, 18 hours at 35° C., read-out: MIC
[6] = tested on: S. aureus UBMS 88-5 Tet M; experiment: microbe, parasite or virus in culture; conditions: Staphylococcus aureus, UBMS885TETM, 18 h
[7] = tested on: S. aureus UBMS 88-7 Tet K; experiment: microbe, parasite or virus in culture; conditions: Staphylococcus aureus, UBMS887TETK, 18 h, 18 hours at 35° C.
[8] = tested on: S. aureus UBMS 90-1 Tet M; experiment: microbe, parasite or virus in culture; conditions: Staphylococcus aureus, UBMS901TETM, 18 h, 18 hours at 35° C.
S. aureus UBMS 90-3 = experiment: MIC, agar dilution method; conditions: Staphylococcus aureus, UBMS903, 18 h
[9] = tested on: S. aureus UBMS 90-2 Tet M; experiment: microbe, parasite or virus in culture; conditions: Staphylococcus aureus, UBMS902TETM, 18 h, 18 hours at 35° C.
S. aureus IVES 2943 = experiment: MIC, agar dilution method; conditions: Staphylococcus aureus
S. aureus ROSE (MP) = experiment: MIC, agar dilution method; conditions: Staphylococcus aureus, 18 hours at 35° C.
S. aureus SMITH (MP) = experiment: MIC, agar dilution method; conditions: Staphylococcus aureus, 18 hours at 35° C.
S. aureus IVES 1 983 = experiment: MIC, agar dilution method; conditions: Staphylococcus aureus
S. aureus ATCC 29213 = experiment: MIC, agar dilution method; conditions: Staphylococcus aureus
[10] = tested on: S. hemolyticus AVHAH 88-3; experiment: MIC, agar dilution method; conditions: Streptococcus pyogenes
Enterococcus 12201 = experiment: MIC, agar dilution method; conditions: 18 hours at 35° C.
E. faecalis ATCC 29212 = experiment: MIC, agar dilution method; conditions: Enterococcus faecalis
[11] = NEMC87210, 18 hours at 35° C., read-out: MIC
[12] = Ps. acruginosa ATCC 27853, 18 hours at 35° C., read-out: MIC
[13] = AVHAH883, 18 hours at 35° C., read-out: MIC
[14] = ATCC29212, 18 h, 18 hours at 35° C.
[15] = NEMC87210, 18 h, 18 hours at 35° C.
[16] = AVHAH883, 18 h, 18 hours at 35° C.
[17] = S. aureus UBMS 88-5 Tet M, 18 hours at 35° C.
[18] = NEMC8769, S. aureus NEMC 8769, 18 hours at 35° C., read-out: MIC
[19] = IVES2943, S. aureus IVES 2943, 18 hours at 35° C., read-out: MIC
[20] = IVES1983, S. aureus IVES 1 983, 18 hours at 35° C., read-out: MIC
[21] = ATCC29213, 18 hours at 35° C., read-out: MIC

Row | Compound | MIC (E. coli UBMS 88-1 Tet B) | MIC [1] | MIC (E. coli PRP1 Tet A) | MIC [2] | MIC (E. coli J3272 Tet C) | MIC (E. coli UBMS 89-1 Tet M) | MIC [3] | MIC (E. coli J2175) | MIC (E. coli BAJ9003 IMP MUT) | MIC (E. coli UBMS 90-4 Tet M) | MIC (E. coli UBMS 90-5 sens) | MIC (E. coli #311 (MP)) | MIC (E. coli ATCC 25922) | MIC (E. coli J3272 Tet D) | MIC (S. mariescens FPOR 8733) | MIC (S. aureus UBMS 88-4) | MIC [6] | MIC [7] | MIC [8] | MIC [9] | other results
1 | CN(C)CC(=O)Nc1c(O)c2c(c(N(C)C)c1Cl)CC1CC3[C@H](N(C)C)C(O)=C(C(N)=O)C(=O)[C@@]3(O)C(O)=C1C2=O (stereo partly drawn) [B, [4S-(4α,12aα)]-8-Chloro-4,7-(dimethylamino)-9-[[(dimethylamino)acetyl]amino]-1,4,4a,5,5a,6,11,12a-octahydro-3,10,12,12a-tetrahydroxy-1,11-dioxo-2-naphthacenecarboxamide] | > 32 µg/mL | 2 µg/mL (≈ 3.38 µM) | 16 µg/mL (≈ 27 µM) | > 32 µg/mL | 16 µg/mL (≈ 27 µM) | 32 µg/mL (≈ 54 µM) | 16 µg/mL (≈ 27 µM) | 32 µg/mL (≈ 54 µM) | 0.12 µg/mL (≈ 0.203 µM) | > 32 µg/mL | 32 µg/mL (≈ 54 µM) | 4 µg/mL (≈ 6.76 µM) | 8 µg/mL (≈ 13.5 µM) | 32 µg/mL (≈ 54 µM) | > 32 µg/mL | 0.25 µg/mL (≈ 0.422 µM) | 0.25 µg/mL (≈ 0.422 µM) | 2 µg/mL (≈ 3.38 µM) | 0.5 µg/mL (≈ 0.845 µM) | 0.25 µg/mL (≈ 0.422 µM) | MIC [4, 11]: 0.5 µg/mL (≈ 0.845 µM); MIC [5, 12]: > 32 µg/mL; MIC (S. aureus NEMC 8769; NEMC8769, 18 h): 0.12 µg/mL (≈ 0.203 µM); MIC (S. aureus UBMS 90-3): 0.12 µg/mL (≈ 0.203 µM); MIC (S. aureus IVES 2943; IVES2943, 18 h): 4 µg/mL (≈ 6.76 µM); MIC (S. aureus ROSE (MP); 18 h): 8 µg/mL (≈ 13.5 µM); MIC (S. aureus SMITH (MP); 18 h): 0.12 µg/mL (≈ 0.203 µM); MIC (S. aureus IVES 1 983; IVES1983, 18 h): 4 µg/mL (≈ 6.76 µM); MIC (S. aureus ATCC 29213; ATCC29213, 18 h, 18 hours at 35° C.): 0.25 µg/mL (≈ 0.422 µM); MIC [10, 13]: 0.5 µg/mL (≈ 0.845 µM); MIC (Enterococcus 12201; Enterococcus, 12201, 18 h): 0.12 µg/mL (≈ 0.203 µM); MIC (E. faecalis ATCC 29212; [14]): 0.12 µg/mL (≈ 0.203 µM)
2 | CN(C)c1ccc(O)c2c1C[C@H]1C[C@H]3[C@H](N(C)C)C(O)=C(C(N)=O)C(=O)[C@@]3(O)C(O)=C1C2=O [L, Minocycline, reference compound] |  |  |  |  |  |  |  |  |  | > 32 µg/mL |  |  |  |  |  |  | 8 µg/mL (≈ 17.5 µM) | 0.25 µg/mL (≈ 0.546 µM) | 8 µg/mL (≈ 17.5 µM) |  | MIC [4, 15]: 0.25 µg/mL (≈ 0.546 µM); MIC (S. aureus ROSE (MP); read-out: MIC): 1 µg/mL (≈ 2.19 µM); MIC [10, 16]: 0.25 µg/mL (≈ 0.546 µM)
3 | CN(C)[C@@H]1C(O)=C(C(N)=O)C(=O)[C@@]2(O)C(O)=C3C(=O)c4c(O)cccc4[C@@](C)(O)[C@H]3C[C@@H]12 [M, Tetracycline] | > 32 µg/mL |  | 32 µg/mL (≈ 72 µM) | > 32 µg/mL | > 32 µg/mL | 32 µg/mL (≈ 72 µM) | 2 µg/mL (≈ 4.5 µM) | 2 µg/mL (≈ 4.5 µM) |  | 32 µg/mL (≈ 72 µM) |  |  |  | > 32 µg/mL | > 32 µg/mL |  |  | > 32 µg/mL | > 32 µg/mL | 32 µg/mL (≈ 72 µM) | MIC [4, 15]: 8 µg/mL (≈ 18 µM); MIC ([5]; 18 h): 16 µg/mL (≈ 36 µM); MIC [6, 17]: > 32 µg/mL; MIC (S. aureus IVES 2943; IVES2943, 18 h): > 32 µg/mL; MIC (S. aureus ROSE (MP); 18 h): > 32 µg/mL; MIC (S. aureus IVES 1 983; IVES1983, 18 h): > 32 µg/mL; MIC [10, 16]: 1 µg/mL (≈ 2.25 µM); MIC (Enterococcus 12201; Enterococcus, 12201, 18 h): > 32 µg/mL; MIC (E. faecalis ATCC 29212; [14]): 16 µg/mL (≈ 36 µM)
4 | CCCCNCC(=O)Nc1c(Cl)cc2c(c1O)C(=O)C1=C(O)[C@]3(O)C(=O)C(C(N)=O)=C(O)[C@@H](N(C)C)C3CC1C2 (stereo partly drawn) [D, [4S-(4α,12aα)]-9-[[(Butylamino)acetyl]amino]-8-chloro-4-(dimethylamino) -1,4,4a,5,5a,6,11,12a-octahydro-3,10,12,12a-tetrahydroxy-1,11-dioxo-2-naphthacenecarboxamide dihydrochloride] | 2 µg/mL | 0.25 µg/mL | 4 µg/mL | 1 µg/mL | 2 µg/mL | 0.5 µg/mL | 2 µg/mL | 1 µg/mL | 0.25 µg/mL | 1 µg/mL | 1 µg/mL | 1 µg/mL | 1 µg/mL | 1 µg/mL | 16 µg/mL | 0.5 µg/mL | 1 µg/mL | 8 µg/mL | 2 µg/mL | 0.5 µg/mL | MIC [4, 15]: 4 µg/mL; MIC ([5]; 18 h): > 32 µg/mL; MIC (S. aureus NEMC 8769; [18]): 0.5 µg/mL; MIC (S. aureus IVES 2943; [19]): 16 µg/mL; MIC (S. aureus ROSE (MP); read-out: MIC): 16 µg/mL; MIC (S. aureus SMITH (MP); read-out: MIC): 0.5 µg/mL; MIC (S. aureus IVES 1 983; [20]): 8 µg/mL; MIC (S. aureus ATCC 29213; [21]): 0.5 µg/mL; MIC [10, 13]: 8 µg/mL; MIC (Enterococcus 12201; read-out: MIC): 0.5 µg/mL; MIC (E. faecalis ATCC 29212; [14]): 0.25 µg/mL
5 | CN(C)[C@@H]1C(O)=C(C(N)=O)C(=O)[C@@]2(O)C(O)=C3C(=O)c4c(cc(Cl)c(NC(=O)CCl)c4O)CC3CC12 (stereo partly drawn) [K, [4S-(4α,12aα)]-9-[(Chloroacetyl)amino]-8-chloro-4-(dimethylamino)-1,4,4a,5,5a ,6,11,12a-octahydro-3,10,12,12a-tetrahydroxy-1,11-dioxo-2-naphthacenecarboxamide hydrochloride] | > 32 µg/mL | 8 µg/mL | > 32 µg/mL | > 32 µg/mL | > 32 µg/mL | 8 µg/mL | > 32 µg/mL | > 32 µg/mL | 1 µg/mL | > 32 µg/mL | > 32 µg/mL | 16 µg/mL | 16 µg/mL | > 32 µg/mL | > 32 µg/mL | 0.5 µg/mL |  | 4 µg/mL | 1 µg/mL | 0.5 µg/mL | MIC [4, 11]: 8 µg/mL; MIC [5, 12]: > 32 µg/mL; MIC (S. aureus NEMC 8769; [18]): 0.5 µg/mL; MIC [6, 17]: 1 µg/mL; MIC (S. aureus IVES 2943; [19]): 4 µg/mL; MIC (S. aureus ROSE (MP); read-out: MIC): 4 µg/mL; MIC (S. aureus SMITH (MP); read-out: MIC): 0.5 µg/mL; MIC (S. aureus IVES 1 983; [20]): 4 µg/mL; MIC (S. aureus ATCC 29213; [21]): 0.5 µg/mL; MIC [10, 13]: 4 µg/mL; MIC (Enterococcus 12201; read-out: MIC): 2 µg/mL; MIC (E. faecalis ATCC 29212; ATCC29212, 18 hours at 35° C., read-out: MIC): 0.5 µg/mL
